Experimental findings from ChEMBL document CHEMBL5154882, “Discovery of 4-Hydroxyquinazoline Derivatives as Small Molecular BET/PARP1 Inhibitors That Induce Defective Homologous Recombination and Lead to Synthetic Lethality for Triple-Negative Breast Cancer Therapy” (J Med Chem, 2022) are described below.

Each structure is given as a SMILES string.

The target of test [1] is Bromodomain-containing protein 4 (Homo sapiens, UniProt O60885). As to the kind of experiment: Inhibition of BRD4 (unknown origin) at 1 uM relative to control.
For test [2], the target named is Poly [ADP-ribose] polymerase 1 (Homo sapiens, UniProt P09874). Description: Inhibition of PARP1 (unknown origin) at 1 uM relative to control.
Sequence of Poly [ADP-ribose] polymerase 1 (P09874 whole entry): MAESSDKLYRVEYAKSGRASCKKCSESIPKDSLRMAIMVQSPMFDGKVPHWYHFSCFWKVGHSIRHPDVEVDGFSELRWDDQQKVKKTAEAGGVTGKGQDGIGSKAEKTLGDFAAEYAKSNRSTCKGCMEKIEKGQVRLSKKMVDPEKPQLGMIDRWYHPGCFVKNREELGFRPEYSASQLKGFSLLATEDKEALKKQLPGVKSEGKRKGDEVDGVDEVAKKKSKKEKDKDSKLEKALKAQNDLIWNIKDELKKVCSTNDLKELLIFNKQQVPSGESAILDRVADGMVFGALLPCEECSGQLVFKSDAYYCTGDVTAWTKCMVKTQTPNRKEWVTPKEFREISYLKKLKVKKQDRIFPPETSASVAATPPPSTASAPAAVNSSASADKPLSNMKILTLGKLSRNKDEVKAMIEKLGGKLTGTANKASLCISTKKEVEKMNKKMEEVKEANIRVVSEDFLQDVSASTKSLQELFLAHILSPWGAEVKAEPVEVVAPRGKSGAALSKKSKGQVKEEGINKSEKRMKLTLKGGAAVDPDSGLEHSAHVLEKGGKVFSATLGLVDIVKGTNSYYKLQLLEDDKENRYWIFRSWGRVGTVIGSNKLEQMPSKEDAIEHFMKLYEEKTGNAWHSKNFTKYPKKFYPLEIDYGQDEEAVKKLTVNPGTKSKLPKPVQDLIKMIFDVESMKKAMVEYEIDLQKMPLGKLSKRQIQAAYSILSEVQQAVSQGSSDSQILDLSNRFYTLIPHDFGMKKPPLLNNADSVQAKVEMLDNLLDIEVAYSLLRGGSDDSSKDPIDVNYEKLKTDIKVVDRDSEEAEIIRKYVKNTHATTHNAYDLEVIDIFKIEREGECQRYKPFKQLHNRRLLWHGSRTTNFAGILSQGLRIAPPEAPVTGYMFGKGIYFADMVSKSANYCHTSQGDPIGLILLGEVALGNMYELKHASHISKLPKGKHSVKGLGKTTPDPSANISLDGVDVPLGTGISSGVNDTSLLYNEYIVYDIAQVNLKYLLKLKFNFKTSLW
A further test relates to MDA-MB-231. Description: Antiproliferative activity against human MDA-MB-231 cells assessed as reduction in cell viability incubated for 72 hrs by MTT assay. It counts as functional, cell-based. As to conditions: MDA-MB-231, 72 h.
A further test has as its system MDA-MB-468. As to the kind of experiment: Antiproliferative activity against human MDA-MB-468 cells assessed as reduction in cell viability incubated for 72 hrs by MTT assay. The note with it: MDA-MB-468, 72 h. The format is functional, cell-based. In general terms: Formazan colour is commonly taken as a measure of viable cells.

In the case of `O=c1[nH]c(-c2ccc(Cc3n[nH]c(=O)c4ccccc34)cc2)nc2ccc(F)cc12`, the figures for the inhibition in test [1] and in test [2] were 47.2% and 58.2%, respectively. In addition, the IC50 in the test on MDA-MB-231 came out at 16.5 µM; in the test with MDA-MB-468, 14 µM.

As to `Cc1cc(-c2nc3ccc(F)cc3c(=O)[nH]2)ccc1Cc1n[nH]c(=O)c2ccccc12`, the inhibition in test [1] amounted to 54.2%; in test [2] it was 49.5%. The IC50 with MDA-MB-231 turned out to be 25.1 µM; in the test with MDA-MB-468, 20.2 µM.

On to `O=c1[nH]c(-c2cc(F)cc(Cc3n[nH]c(=O)c4ccccc34)c2)nc2ccccc12`, for which the inhibition in test [1] was 45.5%; in test [2] it was 84.5%. Further, the results for the concentration for half-maximal inhibition (IC50) with MDA-MB-231 and in the test with MDA-MB-468 were 17.7 µM and 14.2 µM, respectively.

For `Cc1cc(-c2nc3ccc(Br)cc3c(=O)[nH]2)ccc1Cc1n[nH]c(=O)c2ccccc12`, the results for the inhibition in test [1] and in test [2] were 52.3% and 43.8%, respectively. In addition, the IC50 in the test with MDA-MB-231 was 28.2 µM; in the test on MDA-MB-468, 24.5 µM.

Take `O=c1[nH]c(-c2cc(F)cc(Cc3n[nH]c(=O)c4ccccc34)c2)nc2ccc(Cl)cc12`: the inhibition in test [1] turned out to be 54.5%; in test [2], 78%. In addition, the IC50 with MDA-MB-231 stood at 15 µM; in the test on MDA-MB-468, 12.3 µM.

The term inhibition denotes the relative decrease from the control value, in per cent. For orientation: IC50 means the concentration needed to halve the response being measured.
